The source of these data is patent publication US6833389B2, “Use of thiamphenicol and derivatives thereof for the preparation of pharmaceutical compositions useful in the treatment of Chlamydia pneumoniae infections” (Zambon Group S.p.A., priority 2000, dated 2004).

In one experiment the test system is Chlamydia pneumoniae. The experiment is described as follows: MIC against Chlamydia pneumoniae strains in Hep-2 cell monolayers (inhibition of inclusion formation). It is filed as cell-based. The protocol:
Chlamydia pneumoniae TW183 and Chlamydia pneumoniae 2023 were obtained from American Type Culture Collection. The other strains (No. 9 isolated) were clinically isolated in the period 1997-1999. […] Monolayers of Hep-2 cells were prepared by seeding 2×10^5 cell/ml in EMEM with 10% fetal calf serum supplemented with L-glutammine, on 12 mm cover slips and left at 35° C., 5% CO2 for 24 to 48 hours for confluent growth. The growth medium was removed and Hep-2 monolayers were inoculated with the different strains at predetermined concentration calculated to give 3-5×10^2 inclusions for well. The monolayers, inoculated with Chlamydia pneumoniae were centrifuged at 1700 g for 60 minutes at 30° C. […] In positive control no antibiotic was added and negative control were considered wells not inoculated with Chlamydia pneumoniae. […] All tests were run in duplicate. The number of inclusions were counted and the MIC (the lowest concentration at which complete inhibition of inclusion formation was observed) was determined.

The subject of the next experiment is Chlamydia trachomatis. To be noted: literature (Ridgeway et al. 1979); markedly lower than erythromycin; cited from earlier work.
Where [1] appears, read: Chlamydia pneumoniae, 72 h, MIC range over the 11 Chlamydia pneumoniae strains, Hep-2 cells, 3 days, read-out: MIC.
The mark [2] stands for this setting: strain 1 (clinical isolate), test I.
[3] abbreviates: strain 1 (clinical isolate), test II.
Where [4] appears, read: strain 2 (clinical isolate), test I.
Setting [5] is: strain 2 (clinical isolate), test II.
[6] abbreviates: strain 3 (clinical isolate), test I.
The mark [7] stands for this setting: strain 3 (clinical isolate), test II.
Setting [8] is: strain 4 (clinical isolate), test I.
[9] abbreviates: strain 4 (clinical isolate), test II.
[10] abbreviates: strain 5 (clinical isolate), test I.
Where [11] appears, read: strain 5 (clinical isolate), test II.
The mark [12] stands for this setting: strain 6 (clinical isolate), test I.
Where [13] appears, read: strain 6 (clinical isolate), test II.
The mark [14] stands for this setting: strain 7 (clinical isolate), test I.
[15] abbreviates: strain 7 (clinical isolate), test II.
[16] abbreviates: strain 8 (clinical isolate), test I.
[17] abbreviates: strain 8 (clinical isolate), test II.
Where [18] appears, read: strain 9 (clinical isolate), test I.
Where [19] appears, read: strain 9 (clinical isolate), test II.

≈ marks a conversion by molar mass, not a printed value. Where two headings read alike, the source gives them in different places.

The term MIC denotes the smallest concentration in the dilution series that meets the test's criterion for growth inhibition. With `C[C@H]1c2cccc(O)c2C(=O)C2=C(O)[C@]3(O)C(=O)C(C(N)=O)=C(O)[C@@H](N(C)C)[C@@H]3[C@@H](O)[C@@H]21` [Doxycycline, doxycycline], the MIC in the experiment with Chlamydia pneumoniae (setting [1]) was 0.06 to 0.25 µg/mL (≈ 0.135 to 0.563 µM); with Chlamydia pneumoniae (Chlamydia pneumoniae, ATCC2023, strain ATCC 2023, test I, read-out: MIC), 0.06 µg/mL (≈ 0.135 µM); in the experiment on Chlamydia pneumoniae (Chlamydia pneumoniae, ATCC2023, strain ATCC 2023, test II, read-out: MIC), 0.06 µg/mL (≈ 0.135 µM); with Chlamydia pneumoniae (Chlamydia pneumoniae, strain 1 (clinical isolate), test I, read-out: MIC) it was 0.06 µg/mL (≈ 0.135 µM); in the experiment on Chlamydia pneumoniae (Chlamydia pneumoniae, strain 1 (clinical isolate), test II, read-out: MIC), 0.125 µg/mL (≈ 0.281 µM); in the experiment on Chlamydia pneumoniae (Chlamydia pneumoniae, strain 2 (clinical isolate), test I, read-out: MIC), 0.125 µg/mL (≈ 0.281 µM). Moreover, the MIC with Chlamydia pneumoniae (Chlamydia pneumoniae, strain 2 (clinical isolate), test II, read-out: MIC) worked out at 0.125 µg/mL (≈ 0.281 µM); with Chlamydia pneumoniae (Chlamydia pneumoniae, strain 3 (clinical isolate), test I, read-out: MIC), 0.125 µg/mL (≈ 0.281 µM); in the experiment on Chlamydia pneumoniae (Chlamydia pneumoniae, strain 3 (clinical isolate), test II, read-out: MIC), 0.125 µg/mL (≈ 0.281 µM); in the experiment on Chlamydia pneumoniae (Chlamydia pneumoniae, strain 4 (clinical isolate), test I, read-out: MIC), 0.06 µg/mL (≈ 0.135 µM); with Chlamydia pneumoniae (Chlamydia pneumoniae, strain 4 (clinical isolate), test II, read-out: MIC), 0.06 µg/mL (≈ 0.135 µM); with Chlamydia pneumoniae (Chlamydia pneumoniae, strain 5 (clinical isolate), test I, read-out: MIC) it was 0.125 µg/mL (≈ 0.281 µM). For the same molecule, the MIC with Chlamydia pneumoniae (Chlamydia pneumoniae, strain 5 (clinical isolate), test II, read-out: MIC) amounted to 0.06 µg/mL (≈ 0.135 µM); with Chlamydia pneumoniae (Chlamydia pneumoniae, strain 6 (clinical isolate), test I, read-out: MIC), 0.06 µg/mL (≈ 0.135 µM); in the experiment on Chlamydia pneumoniae (Chlamydia pneumoniae, strain 6 (clinical isolate), test II, read-out: MIC), 0.06 µg/mL (≈ 0.135 µM); in the experiment with Chlamydia pneumoniae (Chlamydia pneumoniae, strain 7 (clinical isolate), test I, read-out: MIC), 0.06 µg/mL (≈ 0.135 µM); with Chlamydia pneumoniae (Chlamydia pneumoniae, strain 7 (clinical isolate), test II, read-out: MIC), 0.06 µg/mL (≈ 0.135 µM); in the experiment on Chlamydia pneumoniae (Chlamydia pneumoniae, strain 8 (clinical isolate), test I, read-out: MIC), 0.25 µg/mL (≈ 0.563 µM). The MIC in the experiment on Chlamydia pneumoniae (Chlamydia pneumoniae, strain 8 (clinical isolate), test II, read-out: MIC) is 0.06 µg/mL (≈ 0.135 µM); with Chlamydia pneumoniae (Chlamydia pneumoniae, strain 9 (clinical isolate), test I, read-out: MIC) it was 0.25 µg/mL (≈ 0.563 µM); in the experiment with Chlamydia pneumoniae (Chlamydia pneumoniae, strain 9 (clinical isolate), test II, read-out: MIC), 0.25 µg/mL (≈ 0.563 µM); in the experiment on Chlamydia pneumoniae (Chlamydia pneumoniae, strain TW 183, test I, read-out: MIC) it was 0.125 µg/mL (≈ 0.281 µM); with Chlamydia pneumoniae (Chlamydia pneumoniae, strain TW 183, test II, read-out: MIC), 0.25 µg/mL (≈ 0.563 µM).
Regarding `CC(=O)N[C@@H](CS)C(=O)O.CS(=O)(=O)c1ccc([C@@H](O)[C@@H](COC(=O)CN)NC(=O)C(Cl)Cl)cc1` [TGA, thiamphenicol glycinate acetylcysteinate], the MIC against Chlamydia pneumoniae (setting [2]) worked out at 0.03 µg/mL; against Chlamydia pneumoniae (setting [3]), 0.06 µg/mL; in the experiment with Chlamydia pneumoniae (setting [4]) it was 0.03 µg/mL; against Chlamydia pneumoniae (setting [5]), 0.03 µg/mL; against Chlamydia pneumoniae (setting [6]), 0.125 µg/mL; in the experiment with Chlamydia pneumoniae (setting [7]), 0.125 µg/mL. The MIC against Chlamydia pneumoniae (setting [8]) was 0.25 µg/mL; in the experiment with Chlamydia pneumoniae (setting [9]), 0.06 µg/mL; in the experiment with Chlamydia pneumoniae (setting [10]), 0.125 µg/mL; against Chlamydia pneumoniae (setting [11]) it was 0.125 µg/mL; against Chlamydia pneumoniae (setting [12]), 0.03 µg/mL; with Chlamydia pneumoniae (setting [13]), 0.03 µg/mL. Also, the MIC stood at 0.03 µg/mL against Chlamydia pneumoniae (setting [14]); 0.03 µg/mL against Chlamydia pneumoniae (setting [15]); 0.125 µg/mL in the experiment on Chlamydia pneumoniae (setting [16]); 0.03 µg/mL with Chlamydia pneumoniae (setting [17]); 0.125 µg/mL against Chlamydia pneumoniae (setting [18]); 0.125 µg/mL with Chlamydia pneumoniae (setting [19]). Moreover, the MIC against Chlamydia pneumoniae (strain ATCC 2023, test I) turned out to be 0.03 µg/mL; in the experiment on Chlamydia pneumoniae (strain ATCC 2023, test II), 0.03 µg/mL; in the experiment with Chlamydia pneumoniae (strain TW 183, test I), 0.06 µg/mL; against Chlamydia pneumoniae (strain TW 183, test II), 0.03 µg/mL.
Take `CN(C)[C@@H]1C(O)=C(C(N)=O)C(=O)[C@@]2(O)C(O)=C3C(=O)c4c(O)cccc4[C@@](C)(O)[C@H]3C[C@@H]12.Cl` [Tetracycline, tetracycline hydrochloride]: the MIC with Chlamydia pneumoniae (MIC range over the 11 Chlamydia pneumoniae strains, Hep-2 cells, 3 days) was 0.06 to 0.5 µg/mL; against Chlamydia pneumoniae (setting [2]), 0.06 µg/mL; in the experiment with Chlamydia pneumoniae (setting [3]), 0.06 µg/mL; in the experiment on Chlamydia pneumoniae (setting [4]), 0.06 µg/mL; against Chlamydia pneumoniae (setting [5]) it was 0.06 µg/mL; against Chlamydia pneumoniae (setting [6]), 0.125 µg/mL. Further, the MIC in the experiment on Chlamydia pneumoniae (setting [7]) was found to be 0.125 µg/mL; in the experiment with Chlamydia pneumoniae (setting [8]), 0.125 µg/mL; against Chlamydia pneumoniae (setting [9]) it was 0.5 µg/mL; in the experiment on Chlamydia pneumoniae (setting [10]) it was 0.125 µg/mL; in the experiment with Chlamydia pneumoniae (setting [11]), 0.25 µg/mL; with Chlamydia pneumoniae (setting [12]) it was 0.06 µg/mL. Further, the MIC against Chlamydia pneumoniae (setting [13]) amounted to 0.5 µg/mL; against Chlamydia pneumoniae (setting [14]), 0.125 µg/mL; against Chlamydia pneumoniae (setting [15]), 0.125 µg/mL; in the experiment with Chlamydia pneumoniae (setting [16]), 0.06 µg/mL; against Chlamydia pneumoniae (setting [17]), 0.06 µg/mL; in the experiment on Chlamydia pneumoniae (setting [18]), 0.06 µg/mL. The MIC in the experiment with Chlamydia pneumoniae (setting [19]) came to 0.5 µg/mL; with Chlamydia pneumoniae (strain ATCC 2023, test I) it was 0.06 µg/mL; in the experiment with Chlamydia pneumoniae (strain ATCC 2023, test II), 0.125 µg/mL; against Chlamydia pneumoniae (strain TW 183, test I), 0.06 µg/mL; against Chlamydia pneumoniae (strain TW 183, test II), 0.06 µg/mL.
For the molecule `CS(=O)(=O)c1ccc([C@@H](O)[C@@H](CO)NC(=O)C(Cl)Cl)cc1` [thiamphenicol], the minimum inhibitory concentration (MIC) in the experiment with Chlamydia pneumoniae (setting [1]) is 0.03 to 0.25 µg/mL (≈ 0.0842 to 0.702 µM). In addition, the “activity against Chlamydia trachomatis” value in the experiment with Chlamydia trachomatis is listed as “active”.
